This assay concerns the target T1, recombinant human AKR1C3 (Homo sapiens, UniProt P42330).
T1 construct: GST (cleaved yes); made in house; host or cells: E. coli
T1 sequence (P42330 1-323): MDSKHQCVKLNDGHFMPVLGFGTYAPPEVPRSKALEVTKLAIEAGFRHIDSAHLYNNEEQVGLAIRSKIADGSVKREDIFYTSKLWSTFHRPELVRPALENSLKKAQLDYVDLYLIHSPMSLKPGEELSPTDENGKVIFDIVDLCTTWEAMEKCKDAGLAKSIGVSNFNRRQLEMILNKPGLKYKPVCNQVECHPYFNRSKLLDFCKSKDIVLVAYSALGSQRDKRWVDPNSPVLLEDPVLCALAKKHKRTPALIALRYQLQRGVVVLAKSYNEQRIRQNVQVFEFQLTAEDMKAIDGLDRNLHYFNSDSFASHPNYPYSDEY
The assay can be described thus: AKR1C3-inhibitory activity assay (generation of Coumberol from Coumberone). The assay is classed as biochemical. To be noted: Coumberone 0.3 μM, NADPH 10 μM, 22° C., typically 90 min, average or median values. Summed up: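 Recombinant human AKR1C3 (E. coli GST fusion, GST removed; ~1 nM) preincubated 15 min with compound, then NADPH 10 μM and Coumberone 0.3 μM (final), 22 °C, typically 90 min, in 50 mM K-phosphate pH 7. Stopped with EM-1404 (1 μM final); Coumberol fluorescence read at 520 nm (ex 380 nm), normalized to no-inhibitor and no-enzyme controls.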
As a reminder, the IC50 is the concentration that inhibits the measured activity by half. Consider `C[C@@H]1CN(C(=O)c2cnn[nH]2)[C@@H](C)CN1S(=O)(=O)c1ccccc1S(C)(=O)=O` [Example 84, [(2S,5R)-2,5-dimethyl-4-{[2-(methylsulfonyl)phenyl]sulfonyl}piperazin-1-yl](1H-1,2,3-triazol-5-yl)methanone], for which the IC50 was 37 nM.
As for `Cc1cc(C)c(S(=O)(=O)N2CCN(C(=O)c3cnn[nH]3)CC2(C)C)c(C)c1` [Example 113, {3,3-dimethyl-4-[(2,4,6-trimethylphenyl)sulfonyl]piperazin-1-yl}(1H-1,2,3-triazol-5-yl)methanone], the IC50 is 39 nM.
With `CC1(C)CN(C(=O)c2cnn[nH]2)CCN1S(=O)(=O)c1cccc(Cl)c1C#N` [Example 134, 2-chloro-6-{[2,2-dimethyl-4-(1H-1,2,3-triazol-5-ylcarbonyl)piperazin-1-yl]sulfonyl}benzonitrile], the IC50 was determined as 7 nM.
Turning to `Cc1cccc(Cl)c1S(=O)(=O)N1CCN(C(=O)c2cnn[nH]2)CC1(C)C` [Example 117, {4-[(2-chloro-6-methylphenyl)sulfonyl]-3,3-dimethylpiperazin-1-yl}(1H-1,2,3-triazol-5-yl)methanone], the IC50 was 4 nM.
Take `C[C@@H]1CN(C(=O)c2cnn[nH]2)[C@@H](C)CN1S(=O)(=O)c1cccc2cccnc12` [Example 68, [(2S,5R)-2,5-dimethyl-4-(quinolin-8-ylsulfonyl)piperazin-1-yl](1H-1,2,3-triazol-5-yl)methanone]: the IC50 amounted to 7 nM.
Take `C[C@@H]1CN(C(=O)c2cnn[nH]2)[C@@H](C)CN1S(=O)(=O)c1cccc(Cl)c1` [Example 74, {(2S,5R)-4-[(3-chlorophenyl)sulfonyl]-2,5-dimethylpiperazin-1-yl}(1H-1,2,3-triazol-5-yl)methanone]: the half-inhibitory concentration (IC50) stood at 1 nM.
Regarding `Cc1cccc(S(=O)(=O)N2C[C@H](C)N(C(=O)c3cnn[nH]3)C[C@H]2C)c1` [Example 75, {(2S,5R)-2,5-dimethyl-4-[(3-methylphenyl)sulfonyl]piperazin-1-yl}(1H-1,2,3-triazol-5-yl)methanone], the half-inhibitory concentration (IC50) is 1 nM.
Regarding `CC1(C)CN(C(=O)c2c[nH]nn2)CCN1S(=O)(=O)c1cc(Cl)cc(Cl)c1` [Example 26, {4-[(3,5-dichlorophenyl)sulfonyl]-3,3-dimethylpiperazin-1-yl}(1H-1,2,3-triazol-4-yl)methanone], the IC50 stood at 4 nM.
Then `C[C@@H]1CN(S(=O)(=O)c2ccc(F)c(Cl)c2)C[C@H](C)N1C(=O)c1cnn[nH]1` [Example 100, {(2R,6S)-4-[(3-chloro-4-fluorophenyl)sulfonyl]-2,6-dimethylpiperazin-1-yl}(1H-1,2,3-triazol-5-yl)methanone], with 20 nM; and `CC1(C)CN(C(=O)c2cnn[nH]2)CCN1S(=O)(=O)c1ccc(F)c(F)c1` [Example 36, {4-[(3,4-difluorophenyl)sulfonyl]-3,3-dimethylpiperazin-1-yl}(1H-1,2,3-triazol-5-yl)methanone], with 26 nM.
Turning to `C[C@@H]1CN(S(=O)(=O)c2ccc(OC(F)(F)F)cc2)C[C@H](C)N1C(=O)c1cnn[nH]1` [Example 101, [(2R,6S)-2,6-dimethyl-4-{[4-(trifluoromethoxy)phenyl]sulfonyl}piperazin-1-yl](1H-1,2,3-triazol-5-yl)methanone], the IC50 was found to be 399 nM.
Regarding `C[C@@H]1CN(C(=O)c2c[nH]nn2)[C@@H](C)CN1S(=O)(=O)c1ccc(Cl)s1` [Example 10, {(2S,5R)-4-[(5-chlorothiophen-2-yl)sulfonyl]-2,5-dimethylpiperazin-1-yl}(1H-1,2,3-triazol-4-yl)methanone], the IC50 amounted to 3 nM.
Take `Cc1ccccc1S(=O)(=O)N1C[C@@H](C)N(C(=O)c2c[nH]nn2)[C@@H](C)C1` [Example 45, {(2R,6S)-2,6-dimethyl-4-[(2-methylphenyl)sulfonyl]piperazin-1-yl}(1H-1,2,3-triazol-4-yl)methanone]: the IC50 turned out to be 1 nM.
For the compound `C[C@@H]1CN(S(=O)(=O)c2cccc(C(F)(F)F)c2)C[C@H](C)N1C(=O)c1c[nH]nn1` [Example 57, [(2R,6S)-2,6-dimethyl-4-{[3-(trifluoromethyl)phenyl]sulfonyl}piperazin-1-yl](1H-1,2,3-triazol-4-yl)methanone], the IC50 was found to be 10 nM.
Then `C[C@@H]1CN(S(=O)(=O)c2cccc3ccccc23)C[C@H](C)N1C(=O)c1cnn[nH]1` [Example 96, [(2R,6S)-2,6-dimethyl-4-(naphthalen-1-ylsulfonyl)piperazin-1-yl](1H-1,2,3-triazol-5-yl)methanone], with 2 nM; and `CC1(C)CN(C(=O)c2cnn[nH]2)CCN1S(=O)(=O)c1cccc2nonc12` [Example 122, [4-(2,1,3-benzoxadiazol-4-ylsulfonyl)-3,3-dimethylpiperazin-1-yl](1H-1,2,3-triazol-5-yl)methanone], with 35 nM; and `C[C@@H]1CN(S(=O)(=O)c2ccccc2Cl)C[C@H](C)N1C(=O)c1c[nH]nn1` [Example 46, {(2R,6S)-4-[(2-chlorophenyl)sulfonyl]-2,6-dimethylpiperazin-1-yl}(1H-1,2,3-triazol-4-yl)methanone], with 2 nM.
`C[C@@H]1CN(C(=O)c2cnn[nH]2)[C@@H](C)CN1S(=O)(=O)c1cc(F)cc(F)c1` [Example 3, {(2S,5R)-4-[(3,5-difluorophenyl)sulfonyl]-2,5-dimethylpiperazin-1-yl}(1H-1,2,3-triazol-5-yl)methanone]: the IC50 amounted to 1 nM.
For the compound `C[C@@H]1CN(C(=O)c2c[nH]nn2)[C@@H](C)CN1S(=O)(=O)c1cccc(Cl)c1F` [Example 9, {(2S,5R)-4-[(3-chloro-2-fluorophenyl)sulfonyl]-2,5-dimethylpiperazin-1-yl}(1H-1,2,3-triazol-4-yl)methanone], the half-maximal inhibitory concentration (IC50) amounted to 1 nM.
In the case of `CC1(C)CN(C(=O)c2cnn[nH]2)CCN1S(=O)(=O)c1cccc(F)c1Cl` [Example 137, {4-[(2-chloro-3-fluorophenyl)sulfonyl]-3,3-dimethylpiperazin-1-yl}(1H-1,2,3-triazol-5-yl)methanone], the concentration for half-maximal inhibition (IC50) is 19 nM.
For `C[C@@H]1CN(S(=O)(=O)c2cccc(Br)c2)C[C@H](C)N1C(=O)c1c[nH]nn1` [Example 50, {(2R,6S)-4-[(3-bromophenyl)sulfonyl]-2,6-dimethylpiperazin-1-yl}(1H-1,2,3-triazol-4-yl)methanone], the IC50 was determined as 3 nM.
On to `C[C@@H]1CN(S(=O)(=O)c2ccccc2F)C[C@H](C)N1C(=O)c1c[nH]nn1` [Example 51, {(2R,6S)-4-[(2-fluorophenyl)sulfonyl]-2,6-dimethylpiperazin-1-yl}(1H-1,2,3-triazol-4-yl)methanone], for which the IC50 worked out at 6 nM.
Consider `CC1(C)CN(C(=O)c2cnn[nH]2)CCN1S(=O)(=O)c1cc(F)ccc1F` [Example 37, {4-[(2,5-difluorophenyl)sulfonyl]-3,3-dimethylpiperazin-1-yl}(1H-1,2,3-triazol-5-yl)methanone], for which the IC50 came to 8 nM.
Take `C[C@@H]1CN(C(=O)c2cnn[nH]2)[C@@H](C)CN1S(=O)(=O)c1cc(Cl)ccc1C(F)(F)F` [Example 89, [(2S,5R)-4-{[5-chloro-2-(trifluoromethyl)phenyl]sulfonyl}-2,5-dimethylpiperazin-1-yl](1H-1,2,3-triazol-5-yl)methanone]: the IC50 was 2 nM.

The record behind these values is patent US20200079758A1, “[4-(PHENYLSULFONYL)PIPERAZIN-1-YL](1H-1,2,3-TRIAZOL-4-YL)METHANONES” (priority 2016, published 2020).
